Assays:
[1] = biological target: T1, S1P1 (Homo sapiens, UniProt P21453); assay: Tango β-arrestin Recruitment Assay in HEK293 cells (Assay 2a); type: cell-based; design: linker with TEV protease (N1a) cleavage site (C); host or cells: HEK293, transiently transfected; settings: Tango β-arrestin Recruitment Assay, read-out: Assay 2a EC50
Source text: For the Tango™ β-arrestin recruitment assay, the cytoplasmic C-terminus of S1P1 is tethered to the tTA transcriptional activator with a linker that contains a cleavage site for the N1a protease from tobacco etch virus (TEV protease). The C-terminus of the human β-arrestin2 protein is fused to TEV protease. Binding of an agonist recruits the β-arrestin-TEV fusion protein to the receptor resulting in cleavage of the linker and release of tTA to enter the nucleus and subsequently activate a tTA-dependent luciferase reporter gene.
Frozen HEK293 cells transiently transfected with receptor cDNAs for S1P1 (Invitrogen) were thawed and suspended in 10 mL of Pro293a-CDM culture medium (Invitrogen) supplemented with 4 mM L-Glutamine (Invitrogen), 1× Pen/Strep (100 units/mL penicillin and 100 μg/mL streptomycin, Invitrogen) and 0.1% fatty acid free BSA (Sigma-Aldrich). Cells were added to the wells of a 384-well white opaque bottom assay plate (PerkinElmer) at 3,000-6,000 cells per well and the plate was incubated for approximately 4 h in a 37° C. incubator. Test compounds were tested at maximum concentrations of 10 μM for the agonist assays. Compounds were diluted in DMSO (10 concentration points, 3-fold each) and added to the assay plate at a 1% final DMSO concentration. For each compound, there were duplicate assay plates and each assay plate had duplicate wells per concentration point. The plate was incubated at 37° C. for 30 min. The efficacy control was 5 μM S1P (Avanti). Following agonist addition, the assay plates were incubated in a 37° C. incubator for 16-18 h. Luciferase assay reagent was added and luminescence measured in an EnVision plate reader (PerkinElmer). To determine agonist activity, percent activity was calculated as [(test compound−background)/(positive control−background)* 100], where background is the luminescence of the DMSO alone control and the positive control is the luminescence from cells incubated with the efficacy control 5 μM S1P. The percent activities were plotted against compound concentration to determine EC50 using XLFit (IDBS).
Assay 1 is the CNG cAMP Assay as described in Biological Example 1. Assay 2a and 2b are the Tango™ β-arrestin Recruitment Assay in HEK293 and U2OS cells, respectively, as described in Biological Example 2. Assay 3a is the hS1P1R GTPγS Binding Assay as described in Biological Example 3. Assay 3b is the GTP-Eu Binding Assay as described in Biological Example 3. EC50's were measured unless otherwise noted. […] In the table, “nt” means the Compound was not tested and “no” means the compound was tested but had no measurable activity under the assay conditions employed.
Target sequence in this assay (P21453 whole entry, the tested form may be a part): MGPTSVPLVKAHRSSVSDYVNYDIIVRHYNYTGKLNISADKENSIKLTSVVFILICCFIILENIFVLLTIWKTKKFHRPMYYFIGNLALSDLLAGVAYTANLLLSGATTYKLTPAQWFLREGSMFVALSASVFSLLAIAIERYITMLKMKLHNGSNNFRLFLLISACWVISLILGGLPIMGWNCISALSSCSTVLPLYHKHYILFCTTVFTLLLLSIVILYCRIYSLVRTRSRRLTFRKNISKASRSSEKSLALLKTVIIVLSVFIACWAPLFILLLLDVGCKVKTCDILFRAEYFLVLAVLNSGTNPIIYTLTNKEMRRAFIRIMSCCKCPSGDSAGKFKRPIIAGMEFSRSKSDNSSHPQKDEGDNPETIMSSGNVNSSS
Target sequence in this assay (P32121 whole entry partner, the tested form may be a part): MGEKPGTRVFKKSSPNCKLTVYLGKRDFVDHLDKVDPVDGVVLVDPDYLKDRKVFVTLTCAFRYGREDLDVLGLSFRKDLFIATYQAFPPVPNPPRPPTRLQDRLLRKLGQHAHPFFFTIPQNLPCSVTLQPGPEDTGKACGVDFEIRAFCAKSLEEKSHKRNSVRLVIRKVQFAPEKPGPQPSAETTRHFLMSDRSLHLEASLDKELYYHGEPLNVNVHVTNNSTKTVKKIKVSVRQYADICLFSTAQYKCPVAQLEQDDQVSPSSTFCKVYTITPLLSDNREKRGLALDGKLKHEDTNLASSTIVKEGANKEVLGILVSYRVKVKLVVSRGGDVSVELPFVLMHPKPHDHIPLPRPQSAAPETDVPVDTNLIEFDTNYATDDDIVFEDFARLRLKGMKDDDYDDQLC

[2] = biological target: T1, S1P1; assay: CNG cAMP Assay (Assay 1); type: cell-based; design: host or cells: HEK293 cells expressing the CNG channel; settings: read-out: Assay 1 EC50
Outline: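 HEK293 cells expressing CNG channel and S1P1, membrane-potential dye loaded; compounds (top 10 μM, 10-point 3-fold, 1.8% DMSO) added with 25 μM Ro 20-1724, 500 nM NECA and 10 nM S1P for 90 min. T90/T0 fluorescence (Ex 350/Em 590 nm) normalised to NECA-alone vs DMSO; EC50 fitted.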
Target sequence in this assay (P21453 whole entry, the tested form may be a part): as the sequence (P21453 whole entry, the tested form may be a part) above

SMILES	EC50 [1]	EC50 [2]
O=C(O)/C=C/c1ccc(-c2noc(-c3cn4cc(C(F)(F)F)cc(Cl)c4n3)n2)c(Cl)c1 [Entry 3]	100 to 500 nM	≤ 100 nM
Cc1cc(C(C)CC(=O)O)ccc1-c1noc(-c2cn3cc(C(F)(F)F)cc(Cl)c3n2)n1 (stereo not drawn) [Example 181, 3-(4-{5-[8-chloro-6-(trifluoromethyl)imidazo[1,2-a]pyridin-2-yl]-1,2,4-oxadiazol-3-yl}-3-methylphenyl)butanoic acid]	100 to 500 nM	≤ 100 nM
OCCOc1ccc(-c2nnc(-c3cn4cc(C(F)(F)F)cc(Cl)c4n3)s2)c(Cl)c1 [Example 243, 2-[(3-chloro-4-{5-[8-chloro-6-(trifluoromethyl)imidazo[1,2-a]pyridin-2-yl]-1,3,4-thiadiazol-2-yl}phenyl)oxy]ethanol]	100 to 500 nM	≤ 100 nM
N#CC(CC(=O)O)c1ccc(-c2noc(-c3cn4cc(C(F)(F)F)cc(Cl)c4n3)n2)c(Cl)c1 (stereo not drawn) [Example 267, 3-(3-chloro-4-{5-[8-chloro-6-(trifluoromethyl)imidazo[1,2-a]pyridin-2-yl]-1,2,4-oxadiazol-3-yl}phenyl)-3-cyanopropanoic acid]	100 to 500 nM	≤ 100 nM
O=C(O)CCc1c(Cl)cc(-c2nc(-c3cn4cc(C(F)(F)F)cc(Cl)c4n3)no2)cc1Cl [Example 314, 3-(2,6-dichloro-4-{3-[8-chloro-6-(trifluoromethyl)imidazo[1,2-a]pyridin-2-yl]-1,2,4-oxadiazol-5-yl}phenyl)propanoic acid]	≤ 100 nM	≤ 100 nM
O=C(O)CCOc1ccc(-c2noc(-c3cn4cc(C(F)(F)F)cc(Cl)c4n3)n2)c(Cl)c1 [Example 255, 3-[(3-chloro-4-{5-[8-chloro-6-(trifluoromethyl)imidazo[1,2-a]pyridin-2-yl]-1,2,4-oxadiazol-3-yl}phenyl)oxy]propanoic acid]	100 to 500 nM	≤ 100 nM
Fc1ccccc1-c1noc(-c2cn3cc(C(F)(F)F)cc(Cl)c3n2)n1 [Example 142, 8-chloro-2-[3-(2-fluorophenyl)-1,2,4-oxadiazol-5-yl]-6-(trifluoromethyl)imidazo[1,2-a]pyridine]	500 to 1000 nM	100 to 500 nM
Cc1cc(NS(C)(=O)=O)ccc1-c1noc(-c2cn3cc(C(F)(F)F)cc(Cl)c3n2)n1 [Example 98, N-(4-{5-[8-chloro-6-(trifluoromethyl)imidazo[1,2-a]pyridin-2-yl]-1,2,4-oxadiazol-3-yl}-3-methylphenyl)methanesulfonamide]	≤ 100 nM	≤ 100 nM
CC(Cc1cc(Cl)c(-c2noc(-c3cn4cc(C(F)(F)F)cc(Cl)c4n3)n2)cc1F)C(=O)O (stereo not drawn) [Example 203, 3-(5-chloro-4-{5-[8-chloro-6-(trifluoromethyl)imidazo[1,2-a]pyridin-2-yl]-1,2,4-oxadiazol-3-yl}-2-fluorophenyl)-2-methylpropanoic acid]	100 to 500 nM	≤ 100 nM
CS(=O)(=O)NCc1ccc(-c2noc(-c3cn4cc(C(F)(F)F)cc(Cl)c4n3)n2)c(Cl)c1 [Example 136, N-[(3-chloro-4-{5-[8-chloro-6-(trifluoromethyl)imidazo[1,2-a]pyridin-2-yl]-1,2,4-oxadiazol-3-yl}phenyl)methyl]methanesulfonamide]	≤ 100 nM	≤ 100 nM
NC(=O)CCc1ccc(-c2noc(-c3cn4cc(C(F)(F)F)cc(Cl)c4n3)n2)c(Cl)c1 [Entry 20]	≤ 100 nM	≤ 100 nM
Cc1cc(Cl)c2nc(-c3nc(-c4cc(F)c(CCC(=O)O)cc4Cl)no3)cn2c1 [Entry 28]	≤ 100 nM	≤ 100 nM
CC(CC(=O)O)c1ccc(-c2noc(-c3cn4cc(C(F)(F)F)cc(Br)c4n3)n2)c(Cl)c1 (stereo not drawn) [Example 266, 3-(4-{5-[8-bromo-6-(trifluoromethyl)imidazo[1,2-a]pyridin-2-yl]-1,2,4-oxadiazol-3-yl}-3-chlorophenyl)butanoic acid]	100 to 500 nM	≤ 100 nM
O=C(O)[C@H]1C[C@H](Oc2ccc(-c3noc(-c4cn5cc(C(F)(F)F)cc(Cl)c5n4)n3)c(Cl)c2)CN1 [Example 97, (4S)-4-[(3-chloro-4-{5-[8-chloro-6-(trifluoromethyl)imidazo[1,2-a]pyridin-2-yl]-1,2,4-oxadiazol-3-yl}phenyl)oxy]-D-proline]	≤ 100 nM	≤ 100 nM
Cc1cc(CC(C)C(=O)O)ccc1-c1noc(-c2cn3cc(C(F)(F)F)cc(Br)c3n2)n1 (stereo not drawn) [Example 173, 3-(4-{5-[8-bromo-6-(trifluoromethyl)imidazo[1,2-a]pyridin-2-yl]-1,2,4-oxadiazol-3-yl}-3-methylphenyl)-2-methylpropanoic acid]	100 to 500 nM	≤ 100 nM
CC(Cc1ccc(-c2noc(-c3cn4cc(C(F)(F)F)cc(Cl)c4n3)n2)c(Cl)c1)C(=O)O (stereo not drawn) [Example 171, 3-(3-chloro-4-{5-[8-chloro-6-(trifluoromethyl)imidazo[1,2-a]pyridin-2-yl]-1,2,4-oxadiazol-3-yl}phenyl)-2-methylpropanoic acid]	100 to 500 nM	≤ 100 nM
Cc1ccccc1-c1noc(-c2cn3cc(C(F)(F)F)cc(Cl)c3n2)n1 [Example 150, 8-chloro-2-[3-(2-methylphenyl)-1,2,4-oxadiazol-5-yl]-6-(trifluoromethyl)imidazo[1,2-a]pyridine]	100 to 500 nM	≤ 100 nM
O=C(O)CCc1ccc(-c2nc(-c3cn4cc(C(F)(F)F)cc(Cl)c4n3)no2)cc1Cl [Example 235, 3-(2-chloro-4-{3-[8-chloro-6-(trifluoromethyl)imidazo[1,2-a]pyridin-2-yl]-1,2,4-oxadiazol-5-yl}phenyl)propanoic acid]	100 to 500 nM	≤ 100 nM
O=C(O)CCc1cc(Cl)c(-c2noc(-c3cn4cc(I)ccc4n3)n2)cc1F [Entry 31]	≤ 100 nM	≤ 100 nM
OCCC(O)c1ccc(-c2noc(-c3cn4cc(C(F)(F)F)cc(Cl)c4n3)n2)c(Cl)c1 (stereo not drawn) [Example 272, 1-(3-chloro-4-{5-[8-chloro-6-(trifluoromethyl)imidazo[1,2-a]pyridin-2-yl]-1,2,4-oxadiazol-3-yl}phenyl)propane-1,3-diol]	100 to 500 nM	≤ 100 nM
Cc1cc(Br)c2nc(-c3nc(-c4cc(F)c(CCC(=O)O)cc4Cl)no3)cn2c1 [Entry 25]	≤ 100 nM	≤ 100 nM
Cc1cc(CC(C)C(=O)O)ccc1-c1noc(-c2cn3cc(C(F)(F)F)cc(Cl)c3n2)n1 (stereo not drawn) [Example 180, 3-(4-{5-[8-chloro-6-(trifluoromethyl)imidazo[1,2-a]pyridin-2-yl]-1,2,4-oxadiazol-3-yl}-3-methylphenyl)-2-methylpropanoic acid]	100 to 500 nM	≤ 100 nM
O=C(O)CN1CCC(Oc2cc(Cl)c(-c3noc(-c4cn5cc(C(F)(F)F)cc(Cl)c5n4)n3)cc2F)C1 (stereo not drawn) [Example 92, {3-[(5-chloro-4-{5-[8-chloro-6-(trifluoromethyl)imidazo[1,2-a]pyridin-2-yl]-1,2,4-oxadiazol-3-yl}-2-fluorophenyl)oxy]pyrrolidin-1-yl}acetic acid]	≤ 100 nM	≤ 100 nM
Fc1ccc(-c2noc(-c3cn4cc(C(F)(F)F)cc(Cl)c4n3)n2)c(Cl)c1 [Example 274, 8-chloro-2-[3-(2-chloro-4-fluorophenyl)-1,2,4-oxadiazol-5-yl]-6-(trifluoromethyl)imidazo[1,2-a]pyridine]	500 to 1000 nM	100 to 500 nM

From patent US20100160369A1, “S1P1 Agonists and Methods of Making And Using” (EXELIXIS, INC., priority 2008, published 2010)
